Source: PMC7203245, “Lacosamide intake during pregnancy increases the incidence of foetal malformations and symptoms associated with schizophrenia in the offspring of mice” (Scientific Reports, 2020)

Columns and labels:
adult male mice [1] = assay: Motor activity and exploration in the open field; type: in vivo; details: high-dose LCM in utero; 3–5 month old mice; 5 minutes
Description: (§1) All trials were performed by an experimenter blind to the drug treatment.
Motor activity in the open field. To evaluate locomotor and exploratory activity, mice were placed in an open field for 5 minutes (38 x 21 x 15 cm: Cybertec S.A., Madrid, Spain). This apparatus consisted of a walled platform containing infrared (IR) emitters and sensors coupled to an actimeter, and the movement sensor was connected to a computer that recorded the number of times the mouse interrupted the IR beams/min. Exploratory activity, was determined through the time the mice interacted with two different objects in a 15 minute session.

[2] = LCM concentration in serum of dams by UHPLC-QTOF-MS; type: in vivo, mice; details: female, mouse, intraperitoneal, 24 h post-injection, 2 dams in each dose group (10-120 mg/kg), no relationship with dose
Description: Maternal weights were assessed at the end of the treatment periods. After 14.5 days of gestation (embryonic day14.5, E14.5), blood was extracted from the orbital sinus of the pregnant dams under anaesthesia (70 mg/kg Thiobarbital: Braun Medical S.A. Spain), as described previously[56] and sacrificed by neck dislocation immediately after. Blood samples were centrifuged immediately, and the serum was collected and stored at -80 °C for further chemical analysis.
Samples were extracted as described previously[25] with slight modifications. Briefly, embryos were rinsed with cold saline and ultrapure water, and their wet-weight was determined. They were then homogenized using a 150 T Ultrasonic homogenizer (Fisher Scientific, Spain) and 10 µL of an internal standard solution (IS: aqueous D^3-LCM IS, 5 mg mL^−1) was added to the biological samples (embryos or 50 µL of serum). […] The mixture was vortexed vigorously for 3 min and centrifuged at 13,000 g for 5 min. The supernatant was transferred to a new Eppendorf tube and evaporated to dryness in a stream of nitrogen gas. The residue was reconstituted with 50 µL of LC-MS Ultrapure water, vortexed for 20 s and centrifuged at 13,000 g for 5 min. The supernatant was transferred to a conic micro insert to be injected onto the UHPLC system.
MS spectra data were collected between m/z 50 and 1000, and MS/MS spectra were registered between 50-300 Da. […]

adult male mice [3] = assay: Tail suspension test; type: in vivo; details: 5 minutes
Description: as §1
Tail suspension test. Depression-like behaviour in mice was determined by measuring the time spent immobile in the tail suspension test. Mice were suspended above the floor by attaching the end of their tail to wire netting, and the time spent immobile during a 5 min test session was measured.

[4] = Nissl staining and immunohistochemistry (calbindin, calretinin, doublecortin) of adult brain; type: in vivo, mice
Description: (§2) As formerly described by[59], mice from each experimental group were anesthetized with 4% of chloral hydrate (10 µL/g of weight) and trans-cardiacally perfused with cold saline. Brains were removed and fixed by immersion for 24 h at 4 °C in 4% paraformaldehyde prepared in phosphate-buffered saline (PBS). Tissue was cryoprotected in 30% sucrose-PBS for 2 days at 4 °C and coronal brain sections (50 µm) were then processed for Nissl staining and free-floating immunohistochemistry. Sections encompassed roughly between 2.80 mm to -2.80 mm from Bregma[60] were selected for Toluidine blue staining and immunohistochemical processing. Brain slices from all animals were processed simultaneously in each assay. Immunohistochemistry assays were performed with free-floating sections and an avidin-biotinylated peroxidase method. Primary antibodies used were calbindin (CB, 1:500, Santa Cruz, sc-365360), calretinin (CR, 1:1000, Santa Cruz, sc-26512) and doublecortin (DCX, 1:500, Santa Cruz, sc-8066). Secondary biotinylated antibodies were used (1:500). […] Several control sections were processed without the primary antibody, showing no signal. To minimize variability, at least 2 sections from each area were analysed per animal on a bright-field DMRB RFY HC microscope (Leica) using a 10X objective. For DCX quantification images were taken using a 20X objective and later a whole image of dentate gyrus was reconstructed using Photoshop tiling function. In each section, the total number of labelled cells per area of tissue was quantified using Image-J software (downloaded as a free software package from the public domain: http://rsb.info.nih.gov/ij/download.html). 6 different animals were processed for each primary antibody and pharmacologic treatment from 10 litters.

adult mouse neocortex = assay: as above; type: in vivo, mice
Description: as §2

adult male mice [5] = assay: Dark-light emergence task; type: in vivo; details: 40 mg/kg in utero; 5 minutes
Description: as §1
Dark-light emergence task. Anxiety-like behaviour was determined in mice using the dark-light emergence test. Testing was carried out in a white open field (50 x 50 cm) containing a small opaque chamber (12 x 12 cm) situated in the centre. The open field was illuminated by a lamp directed at the centre of the field (120 lux focused on the floor). Mice were moved to the testing room 1 hour prior to behavioural testing and they were introduced into the unfamiliar test environment by placing them into the small chamber and recording their behaviour over 5 minutes with a video camera. The total time spent outside the chamber was then quantified by reviewing the video recording.

adult male mice [6] = assay: Startle response/prepulse inhibition (PPI) test; type: in vivo
Description: as §1
Startle response/prepulse inhibition (PPI) test. Animals were placed individually inside a startle chamber (Cibertec S.A., Madrid, Spain) and the startle response was measured using a piezoelectric accelerometer controlled by a computer. The digitized signal was averaged from 25–30 recordings. For training, the mouse was placed in the startle chamber for an acclimation period of 3 min. Baseline responses were averaged after the presentation of 20 sounds (125 dB, 100 ms long) and from this phase, the average response and peak latencies, and the peak response were determined. During PPI trials, the same 125-dB 100-ms burst was preceded (250 ms) by a prepulse stimulus of 85 dB, lasting for 50 ms. Trials including prepulse stimuli were randomly presented with normal startle stimuli, the final total being 25 of each, and the proportion of PPI was determined as [(1-prepulse/startle)*100]. The ambient background noise was 70 dB.

With `COC[C@@H](NC(C)=O)C(=O)NCc1ccccc1` [LCM, R-2-acetamido-N-benzyl-3-methoxypropionamide] as the molecule, how does the “locomotor activity in open field” value (adult male mice [1]) read?
Its value is “enhanced locomotor activity”.

What about the concentration at 24 h [2] of the same molecule?
The concentration at 24 h was 5 to 133 ng/mL.

And the “immobility time (tail suspension test)” value (adult male mice [3]; 40 mg/kg in utero)?
Its value is 82.58 ± 7.38 s.

And the “immobility time (tail suspension test)” value (adult male mice [3]; 120 mg/kg in utero)?
The value was 109.0 ± 7.69 s.

What about the “DCX labelling in ventral DG” value ([4]; 40 mg/kg in utero) of the same molecule?
The value was 13.46 ± 1.03 cells/100 µm².

And the “DCX labelling in ventral DG” value ([4]; 120 mg/kg in utero)?
The value was 9.75 ± 0.85 cells/100 µm².

And the “number of CR neurons in PrL cortex” value (adult mouse neocortex; 40 mg/kg in utero)?
The value was 10.83 ± 1.12 cells/100 µm².

What about the “number of CR neurons in RSA cortex” value (adult mouse neocortex; 40 mg/kg in utero) of the same molecule?
The value was 16.18 ± 1.23 cells/100 µm².

And the “number of calbindin (CB) labelled neurons in the amygdala” value (adult mouse neocortex; 40 mg/kg in utero)?
Its value is 23.28 ± 2.98 cells/100 µm^2.

What about the “number of CR neurons in PrL cortex” value (adult mouse neocortex; 120 mg/kg in utero) of the same molecule?
Its value is 13.03 ± 1.08 cells/100 µm².

What about the “number of CR neurons in RSA cortex” value (adult mouse neocortex; 120 mg/kg in utero) of the same molecule?
The value was 16.94 ± 0.7 cells/100 µm².

And the “number of calbindin (CB) labelled neurons in the amygdala” value (adult mouse neocortex; 120 mg/kg in utero)?
The value was 13 ± 1.8 cells/100 µm^2.

What about the “time spent in the dark compartment (emergence test)” value (adult male mice [5]) of the same molecule?
The value was 217.2 ± 11.19 s.

What about the “PPI of the acoustic startle response” value (adult male mice [6]; 40 mg/kg in utero) of the same molecule?
The value was 54.85 ± 4.27%.

What about the “PPI of the acoustic startle response” value (adult male mice [6]; 120 mg/kg in utero) of the same molecule?
Its value is 23.19 ± 7.9%.

What about the “acoustic startle reflex parameters (peak latencies, maximum peak response)” value (adult male mice [6]; LCM administration during gestation) of the same molecule?
The value was “did not modify any parameters”.
